Results published in patent US20260138961A1, “MODULATORS OF MITOCHONDRIAL DNA REPLICATION” (Pretzel Therapeutics, Inc., priority 2022, published 2026).

The molecules below were run against T1, wild type human POLγ (POLγA:WT) (Homo sapiens, UniProt P54098) (assay: DNA polymerization assay, wild type POLγ). Settings: 100 μM dNTP, read-out: WT AC50 (μM) at 100 μM.
T1 sequence (P54098 1-1239): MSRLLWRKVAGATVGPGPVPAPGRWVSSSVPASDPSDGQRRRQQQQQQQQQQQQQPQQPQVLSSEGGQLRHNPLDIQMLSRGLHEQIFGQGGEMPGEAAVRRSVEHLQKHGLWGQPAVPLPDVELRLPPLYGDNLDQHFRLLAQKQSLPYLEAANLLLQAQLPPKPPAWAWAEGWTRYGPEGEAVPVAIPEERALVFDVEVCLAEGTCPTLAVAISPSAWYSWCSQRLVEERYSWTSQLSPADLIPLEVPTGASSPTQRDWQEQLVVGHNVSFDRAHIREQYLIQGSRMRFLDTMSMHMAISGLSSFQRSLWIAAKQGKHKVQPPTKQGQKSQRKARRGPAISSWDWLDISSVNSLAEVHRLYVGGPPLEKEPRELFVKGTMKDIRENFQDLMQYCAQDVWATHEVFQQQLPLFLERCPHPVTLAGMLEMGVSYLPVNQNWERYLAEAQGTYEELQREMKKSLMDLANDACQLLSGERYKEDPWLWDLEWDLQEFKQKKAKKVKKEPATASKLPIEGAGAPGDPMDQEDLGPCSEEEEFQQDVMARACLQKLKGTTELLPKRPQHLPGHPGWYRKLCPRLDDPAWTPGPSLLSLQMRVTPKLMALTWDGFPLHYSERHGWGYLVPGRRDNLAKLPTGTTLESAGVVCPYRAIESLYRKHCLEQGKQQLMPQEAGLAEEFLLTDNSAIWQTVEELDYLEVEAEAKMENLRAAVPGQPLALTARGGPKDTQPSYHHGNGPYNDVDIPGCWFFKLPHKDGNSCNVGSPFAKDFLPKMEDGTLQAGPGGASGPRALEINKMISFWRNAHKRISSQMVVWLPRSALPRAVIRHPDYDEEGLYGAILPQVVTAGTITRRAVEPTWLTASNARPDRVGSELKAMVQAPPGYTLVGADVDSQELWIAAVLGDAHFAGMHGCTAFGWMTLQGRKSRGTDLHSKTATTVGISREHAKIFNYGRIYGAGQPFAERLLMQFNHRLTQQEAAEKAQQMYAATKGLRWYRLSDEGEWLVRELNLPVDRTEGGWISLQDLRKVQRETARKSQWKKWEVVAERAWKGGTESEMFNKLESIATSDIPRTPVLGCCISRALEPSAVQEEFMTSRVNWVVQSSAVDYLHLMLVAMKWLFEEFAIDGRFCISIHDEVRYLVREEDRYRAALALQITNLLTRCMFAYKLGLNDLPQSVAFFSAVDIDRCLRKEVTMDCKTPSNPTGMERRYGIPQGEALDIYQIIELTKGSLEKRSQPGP
T1 sequence (Q9UHN1 1-485 partner): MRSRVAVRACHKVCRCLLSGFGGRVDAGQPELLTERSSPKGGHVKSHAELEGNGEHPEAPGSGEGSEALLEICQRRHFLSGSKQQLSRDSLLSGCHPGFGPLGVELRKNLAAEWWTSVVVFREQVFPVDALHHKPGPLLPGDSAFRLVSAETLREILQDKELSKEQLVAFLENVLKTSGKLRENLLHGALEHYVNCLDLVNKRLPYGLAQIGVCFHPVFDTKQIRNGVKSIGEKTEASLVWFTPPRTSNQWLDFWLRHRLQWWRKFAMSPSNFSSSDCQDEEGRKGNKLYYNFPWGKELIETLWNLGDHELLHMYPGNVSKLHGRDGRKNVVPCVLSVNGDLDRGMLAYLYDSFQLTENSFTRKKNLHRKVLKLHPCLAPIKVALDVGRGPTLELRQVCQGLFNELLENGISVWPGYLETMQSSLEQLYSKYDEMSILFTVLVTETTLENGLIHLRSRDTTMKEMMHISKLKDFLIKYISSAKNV
Assay type: biochemical

Q: `Cc1cc(S(=O)(=O)Nc2csc(C3CCOCC3)n2)c(C)cc1Cl` [Example 167, 4-chloro-2,5-dimethyl-N-(2-(tetrahydro-2H-pyran-4-yl)thiazol-4-yl)benzenesulfonamide] was tested. Which AC50 did it give?
A: Its AC50 is 4 µM.

Q: Which AC50 does the source give for `Cc1cc(S(=O)(=O)Nc2cn(Cc3ccccc3)cn2)c(C)cc1Cl` [Example 168, N-(1-benzyl-1H-imidazol-4-yl)-4-chloro-2,5-dimethylbenzenesulfonamide] here?
A: The AC50 was over 10 µM.

Q: Which AC50 does the source give for `Cc1cc(S(=O)(=O)Nc2cn(-c3ccccc3)cn2)c(C)cc1Cl` [Example 169, 4-chloro-2,5-dimethyl-N-(1-phenyl-1H-imidazol-4-yl)benzenesulfonamide] here?
A: The AC50 was over 10 µM.

Q: `Cc1cc(S(=O)(=O)Nc2cn(C)c(-c3ccccc3)n2)c(C)cc1Cl` [Example 170, 4-chloro-2,5-dimethyl-N-(1-methyl-2-phenyl-1H-imidazol-4-yl)benzenesulfonamide] was tested. Which AC50 did it give?
A: Its AC50 is over 10 µM.

Q: Which AC50 does the source give for `Cc1cc(S(=O)(=O)Nc2cnn(-c3ccccc3)n2)c(C)cc1Cl` [Example 171, 4-chloro-2,5-dimethyl-N-(2-phenyl-2H-1,2,3-triazol-4-yl)benzenesulfonamide] here?
A: The AC50 was 5 µM.

Q: How did the AC50 turn out when `Cc1cc(S(=O)(=O)Nc2csc(C(=O)N(C)CC(N)=O)n2)c(C)cc1Cl` [Example 172, N-(2-amino-2-oxoethyl)-4-((4-chloro-2,5-dimethylphenyl)sulfonamido)-N-methylthiazole-2-carboxamide] was run?
A: The AC50 was over 100 µM.

Q: With `Cc1cc(S(=O)(=O)Nc2csc(-c3ccccn3)n2)c(C)cc1Cl` [Example 173, 4-chloro-2,5-dimethyl-N-(2-(pyridin-2-yl)thiazol-4-yl)benzenesulfonamide] as the molecule, how does the AC50 read?
A: The AC50 was 0.2 µM.

Q: How did the AC50 turn out when `Cc1cc(S(=O)(=O)Nc2csc(C(=O)N3CCC[C@H]3C)n2)c(C)cc1Cl` [Example 174, (R)-4-chloro-2,5-dimethyl-N-(2-(2-methylpyrrolidine-1-carbonyl)thiazol-4-yl)benzenesulfonamide] was run?
A: The AC50 was 0.1 µM.

Q: With `Cc1cc(S(=O)(=O)Nc2csc(C(=O)N3CCC[C@@H]3C)n2)c(C)cc1Cl` [Example 175, (S)-4-chloro-2,5-dimethyl-N-(2-(2-methylpyrrolidine-1-carbonyl)thiazol-4-yl)benzenesulfonamide] as the molecule, how does the AC50 read?
A: The AC50 was 3 µM.

Q: For `Cc1cc(S(=O)(=O)Nc2csc(-c3ccncc3)n2)c(C)cc1Cl` [Example 176, 4-chloro-2,5-dimethyl-N-(2-(pyridin-4-yl)thiazol-4-yl)benzenesulfonamide], which AC50 is on record?
A: Its AC50 is over 100 µM.

Q: `Cc1cc(S(=O)(=O)Nc2csc(C(=O)N(CC(N)=O)C3CCCC3)n2)c(C)cc1Cl` [Example 177, N-(2-amino-2-oxoethyl)-4-((4-chloro-2,5-dimethylphenyl)sulfonamido)-N-cyclopentylthiazole-2-carboxamide] was tested. Which AC50 did it give?
A: Its AC50 is over 100 µM.

Q: For `Cc1cc(S(=O)(=O)Nc2csc(-n3cccn3)n2)c(C)cc1Cl` [Example 178, N-(2-(1H-pyrazol-1-yl)thiazol-4-yl)-4-chloro-2,5-dimethylbenzenesulfonamide], which AC50 is on record?
A: The AC50 was over 100 µM.

Q: How did the AC50 turn out when `Cc1cc(S(=O)(=O)Nc2csc(C(=O)N(CC(N)=O)C3CCCCC3)n2)c(C)cc1Cl` [Example 179, N-(2-amino-2-oxoethyl)-4-((4-chloro-2,5-dimethylphenyl)sulfonamido)-N-cyclohexylthiazole-2-carboxamide] was run?
A: The AC50 was over 10 µM.

Q: With `Cc1cc(S(=O)(=O)Nc2nc(-c3ccccc3)n(C)n2)c(C)cc1Cl` [Example 180, 4-chloro-2,5-dimethyl-N-(1-methyl-5-phenyl-1H-1,2,4-triazol-3-yl)benzenesulfonamide] as the molecule, how does the AC50 read?
A: The AC50 was over 10 µM.

Q: With `Cc1cc(S(=O)(=O)Nc2csc(-c3ccn(C)n3)n2)c(C)cc1Cl` [Example 181, 4-chloro-2,5-dimethyl-N-(2-(1-methyl-1H-pyrazol-3-yl)thiazol-4-yl)benzenesulfonamide] as the molecule, how does the AC50 read?
A: Its AC50 is over 10 µM.

Q: `Cc1cc2cc(NS(=O)(=O)c3cc(C)c(Cl)cc3C)ccc2[nH]1` [Example 184, 4-chloro-2,5-dimethyl-N-(2-methyl-1H-indol-5-yl)benzenesulfonamide] was tested. Which AC50 did it give?
A: Its AC50 is over 100 µM.
